Several values for one entry are separate records, joined by “and”; a condition that tells them apart may be missing. Equal values may be shown once.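 Tested at 5 concentrations; 48 h exposure; 96-well plates; endpoints linearly interpolated, else capped at highest concentration. At the GI50, growth is halved. TGI: concentration producing complete growth inhibition.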 Where a SMILES comes first, the peptide text is derived from it. [ ]: non-standard residue; d: D form. The star is where a group is joined. Bn2Val = CC(C)[C@@H](C(=O)*)N(Cc1ccccc1)Cc1ccccc1; NH(3,4-diMeO-benzyl) = COc1ccc(CN*)cc1OC; NMeV = CN[C@H](C(=O)O)C(C)C; dNMeA = CN[C@H](C)C(=O)O
Experiments:
Test in all cases: DTP human tumour cell line panel, 48 h
RPMI-8226 leukemia = system: RPMI-8226 leukemia
MALME-3M melanoma = system: MALME-3M melanoma
HCC-2998 colon = system: HCC-2998 colon
HOP-92 NSCLC = system: HOP-92 NSCLC
SN12C renal = system: SN12C renal
HL-60(TB) leukemia = system: HL-60(TB) leukemia
RXF 393 renal = system: RXF 393 renal
UO-31 renal = system: UO-31 renal
COLO 205 colon = system: COLO 205 colon
CCRF-CEM leukemia = system: CCRF-CEM leukemia

Row | Structure (SMILES) | GI50 (RPMI-8226 leukemia) [µM] | TGI (RPMI-8226 leukemia) | GI50 (MALME-3M melanoma) [µM] | TGI (MALME-3M melanoma) | GI50 (HCC-2998 colon) [µM] | TGI (HCC-2998 colon) [µM] | GI50 (HOP-92 NSCLC) [µM] | TGI (HOP-92 NSCLC) | GI50 (SN12C renal) [µM] | TGI (SN12C renal) | GI50 (HL-60(TB) leukemia) [µM] | TGI (HL-60(TB) leukemia) | GI50 (RXF 393 renal) [µM] | TGI (RXF 393 renal) | GI50 (UO-31 renal) [µM] | TGI (UO-31 renal) [µM] | GI50 (COLO 205 colon) [µM] | TGI (COLO 205 colon) | GI50 (CCRF-CEM leukemia) [µM] | TGI (CCRF-CEM leukemia)
1 | CN=C1NC(=O)/C(=C/c2ccc3ncccc3c2)S1 | 12.1 | > 25 µM | 16 | > 25 µM | > 20 | > 25 | 8.03 | > 25 µM | 7.7 | > 25 µM | 8.73 | > 25 µM | 8.08 | > 25 µM | 5.29 | > 25 | 7.45 | > 25 µM | 7.81 | > 25 µM
2 | COc1ccc(CN2CCCC(C(=O)c3ccc(C(F)(F)F)cc3)C2)c(O)c1 (stereo unspecified) | 22 | 62.4 µM | 18.2 | 35.5 µM | 24 | 56.3 | 11.1 | 58 µM | 24.4 | 89.3 µM | 24.9 | 62 µM | 16.9 | 71.9 µM | 14.4 | 59.6 | 19.3 | 36.7 µM | 35.2 | > 100 µM
3 | C/C(=N\NC(N)=S)c1ccc(C)cc1C | – | > 100 µM | – | > 100 µM | – | > 100 | – | > 100 µM | – | > 100 µM | – | > 100 µM | – | 75.2 µM | – | > 100 | – | > 100 µM | – | > 100 µM
4 | CC1=CCCC(OC(N)=O)C1 (stereo unspecified) | – | > 100 µM | – | > 100 µM | – | > 100 | – | > 100 µM | – | > 100 µM | – | > 100 µM | – | > 100 µM | – | > 100 | – | > 100 µM | – | > 100 µM
5 | CC1=C2[C@@H](CC1)[C@]1(C)O[C@@](C(C)C)(C[C@H]1OC(=O)[C@H](C)O)[C@H]2OC(=O)/C=C/c1ccccc1 | 7.9 | 30.8 µM | 14.9 | 31.6 µM | 13.4 | 28.2 | 5.95 | 19.4 µM | 1.47 | 24.6 µM | 13.5 | 39.5 µM | 0.111 | 2.41 µM | 1.01 | 18.7 | 16.9 | 36.2 µM | 16.2 | 41.9 µM
6 | O=C(Cc1ccc(/C=C/C(=O)c2ncc[nH]2)cc1)Nc1ccc(Cl)cc1 | 0.857 | 3.92 µM | 6.24 | 18.5 µM | 3.73 | 7.48 | 5.74 | 20.9 µM | 2.4 | 6.91 µM | 3.8 | 21.8 µM | 3.05 | 6.93 µM | 1.69 | 5.11 | 3.01 | 7.42 µM | 1.08 | > 25 µM
7 | COc1ccc(CNC(=O)[C@@H](C)N(C)C(=O)[C@@H]2CCCN2C(=O)[C@H](C(C)C)N(C)C(=O)[C@@H](NC(=O)[C@H](C(C)C)N(Cc2ccccc2)Cc2ccccc2)C(C)C)cc1OC (Bn2Val-V[NMeV]P[dNMeA]-{NH(3,4-diMeO-benzyl)}) | – | 20 µM and 18.6 µM | 14.8 | 15.6 µM and 31.9 µM | – | 21.2 | 10.2 | 16.9 µM and 23.4 µM | 10 | 17.2 µM and 22.2 µM | – | 11 µM and 9.45 µM | 3.61 | 12.8 µM and 15 µM | – | > 100 | 5.86 | 19.8 µM and 35.9 µM | 0.756 | 16.9 µM and 44.2 µM
8 | COc1cc2c(cc1O)[C@H](Cc1ccc(Oc3cc(C[C@H]4c5cc(OC)c(OC)cc5CCN4C)ccc3OC)cc1)NCC2 | – | 46.8 µM | – | 39.6 µM | – | 18.7 | – | 20.1 µM | – | 31.1 µM | – | 34.6 µM | – | 18.3 µM | – | 21.2 | – | 49.5 µM | – | 37 µM
9 | O=C1/C(=C/c2ccccc2)CN(C(=O)Oc2ccc(Cl)cc2)C/C1=C\c1ccccc1 | – | 0.902 µM | – | 26.7 µM | – | 2.99 | – | 42.3 µM | – | 3.88 µM | – | 4.5 µM | – | 4.14 µM | – | 15.5 | – | 9.53 µM | – | 6.39 µM
10 | Cc1c(C(=O)/C=C/c2cccc3ccccc23)[n+](=O)c2ccccc2n1[O-] | – | 41.8 µM | – | 34.9 µM | – | 30.8 | – | 22.5 µM | – | 29.8 µM | – | 27.3 µM | – | 21.9 µM | – | 31.2 | – | 26.9 µM | – | 16.8 µM
11 | COC(=O)c1c2c(c(C)[n+]([O-])c1C)C(=O)C=CC2=O | 2.07 | 5.29 µM | 1.53 | 2.92 µM | 1.64 | 3.13 | 2.12 | 6.03 µM | 1.62 | 3.1 µM | 2.16 | 4.84 µM | 1.42 | 2.88 µM | 1.69 | 3.39 | 1.64 | 3.35 µM | 0.0559 | 7.3 µM
12 | C[C@@H]1Cc2c([nH]c3ccccc23)[C@@H](c2c(F)cc(/C=C/C(=O)O)cc2F)N1CC(C)(C)F | 8.1 | 37.6 µM | 15.5 | 34.3 µM | 10.4 | 25.6 | 15 | 30.8 µM | 11.9 | 38.3 µM | 15.8 | 39.4 µM | 11.7 | 26.2 µM | 8.1 | 21.6 | 16.5 | 39.8 µM | 12 | 33.8 µM
13 | Cn1c(-c2nonc2N)nc2cnccc21 | > 25 | > 25 µM | > 25 | > 25 µM | > 25 | > 25 | 8.73 | > 25 µM | > 25 | > 25 µM | > 25 | > 25 µM | > 20.6 | > 25 µM | > 17.8 | > 25 | > 25 | > 25 µM | > 25 | > 25 µM
14 | CN(C)c1ccc(/C=C2\C[N+](C)(C)C/C(=C\c3ccc(N(C)C)cc3)C2=O)cc1 | – | 28.5 µM | – | 46.4 µM | – | 22.1 | – | 78.9 µM | – | > 78 µM | – | 13.1 µM | – | > 77.7 µM | – | > 100 | – | 8.36 µM | – | 38.9 µM
